In EP0360258B1, “Amino acid quinoline and naphthyridine derivatives” (ABBOTT LABORATORIES, priority 1988, dated 1990):
Values after ≈ are worked out from the molar mass of the structure shown. Where a name gives a salt, the structure may show the parent alone. Read-outs that look alike come from different tables or passages of the source.

Columns and labels:
Stap. Aureus CMX 553 = test: Second in vitro antibacterial test, MIC (BHIB); type: cell-based; details: Brain Heart Infusion Broth (BHIB)
Ps.Aeruginosa A5007 = test: Second in vitro antibacterial test, MIC (BHIB); type: cell-based; details: Brain Heart Infusion Broth (BHIB)
Strep. pyogenes EES 61 = test: Second in vitro antibacterial test, MIC (BHIB); type: cell-based
E.Coli Juhl = test: Second in vitro antibacterial test, MIC (BHIB); type: cell-based; details: Brain Heart Infusion Broth (BHIB)
[1] = Staphylococcus aureus, read-out: MIC
[2] = Pseudomonas aeruginosa, read-out: MIC
[3] = Streptococcus pyogenes, EES61, Brain Heart Infusion Broth (BHIB), read-out: MIC
[4] = Escherichia coli, read-out: MIC
[5] = Brain Heart Infusion Broth (BHIB)

| SMILES | solubility (physchem; pH 7.4) [µg/mL] | solubility (physchem; water) [µg/mL] | MIC (Stap. Aureus CMX 553; [1]) [µg/mL] | MIC (Ps.Aeruginosa A5007; [2]) [µg/mL] | MIC (Strep. pyogenes EES 61; [3]) [µg/mL] | MIC (E.Coli Juhl; [4]) [µg/mL] | MIC (Stap. Aureus CMX 553) [µg/mL] | MIC (Ps.Aeruginosa A5007) [µg/mL] | MIC (Strep. pyogenes EES 61; [5]) [µg/mL] | MIC (E.Coli Juhl) [µg/mL] |
| --- | --- | --- | --- | --- | --- | --- | --- | --- | --- | --- |
| NC1CCN(c2nc3c(cc2F)c(=O)c(C(=O)O)cn3-c2ccc(F)cc2)C1 (stereo not drawn) [A, 7-(3-amino-1-pyrrolidinyl)-6-fluoro-1-(4-fluorophenyl)-1,4-dihydro-4-oxo-1,8-naphthyridine-3-carboxylic acid, reference compound] | 14 (≈ 36.2 µM) | 1400 (≈ 3620 µM) |  |  |  |  |  |  |  |  |
| CCC[C@H](NC(=O)[C@@H](N)CCC)C(=O)NC1CCN(c2nc3c(cc2F)c(=O)c(C(=O)O)cn3-c2ccc(F)cc2F)C1 (stereo partly drawn) [Example 3b, 7-(3-L-Norvaline-L-Norvalineamino-1-pyrrolidinyl)-1-(2,4-difluorophenyl)-6-fluoro-1,4-dihydro-4-oxo-1,8-naphthyridine-3-carboxylic acid hydrochloride] | 680 | > 40000 | 12.5 | 50 | 12.5 | 25 |  |  |  |  |
| NCC(=O)NC1CCN(c2nc3c(cc2F)c(=O)c(C(=O)O)cn3-c2ccc(F)cc2F)C1 (stereo not drawn) [Example 7] |  |  | 1.56 (≈ 3.38 µM) | 12.5 (≈ 27.1 µM) | 0.78 (≈ 1.69 µM) | 0.78 (≈ 1.69 µM) |  |  |  |  |
| CC(N)C(=O)NC(Cc1ccccc1)C(=O)NC1CCN(c2nc3c(cc2F)c(=O)c(C(=O)O)cn3-c2ccc(F)cc2F)C1 (stereo not drawn) [Example 11] | 590 (≈ 948 µM) | > 20000 | 16 (≈ 25.7 µM) | 128 (≈ 206 µM) |  | 16 (≈ 25.7 µM) |  |  |  |  |
| NC(Cc1ccc(O)cc1)C(=O)NC1CCN(c2nc3c(cc2F)c(=O)c(C(=O)O)cn3-c2ccc(F)cc2F)C1 (stereo not drawn) [Example 13] | 60 (≈ 106 µM) | > 90000 | 12.5 (≈ 22 µM) | 50 (≈ 88.1 µM) | 12.5 (≈ 22 µM) | 12.5 (≈ 22 µM) |  |  |  |  |
| CC(N)C(=O)NC1CCN(c2nc3c(cc2F)c(=O)c(C(=O)O)cn3-c2ccc(F)cc2F)C1 (stereo not drawn) [Example 17] | 120 (≈ 252 µM) | > 20000 | 2 (≈ 4.21 µM) | 16 (≈ 33.7 µM) |  | 0.5 (≈ 1.05 µM) |  |  |  |  |
| CC(C)C(N)C(=O)NC1CCN(c2nc3c(cc2F)c(=O)c(C(=O)O)cn3-c2ccc(F)cc2F)C1 (stereo not drawn) [Example 19] | 410 (≈ 814 µM) | > 10000 |  |  |  |  |  |  |  |  |
| CC(C)CC(N)C(=O)NC1CCN(c2nc3c(cc2F)c(=O)c(C(=O)O)cn3-c2ccc(F)cc2F)C1 (stereo not drawn) [Example 21] | 140 (≈ 271 µM) | > 35000 | 1.56 (≈ 3.01 µM) | 25 (≈ 48.3 µM) | 6.2 (≈ 12 µM) | 1.56 (≈ 3.01 µM) |  |  |  |  |
| CSCCC(N)C(=O)NC1CCN(c2nc3c(cc2F)c(=O)c(C(=O)O)cn3-c2ccc(F)cc2F)C1 (stereo not drawn) [Example 23] |  |  | 3.12 (≈ 5.83 µM) | 5 (≈ 9.34 µM) | 3.12 (≈ 5.83 µM) | 3.12 (≈ 5.83 µM) |  |  |  |  |
| CCCC(N)C(=O)NC1CCN(c2cc3c(cc2F)c(=O)c(C(=O)O)cn3-c2ccc(F)cc2F)C1 (stereo not drawn) [Example 26b] |  |  |  |  |  |  | 0.39 (≈ 0.776 µM) | 6.2 (≈ 12.3 µM) | 1.56 (≈ 3.1 µM) | 0.78 (≈ 1.55 µM) |
| CCC[C@H](N)C(=O)NC1CCN(c2nc3c(cc2F)c(=O)c(C(=O)O)cn3CC)C1 (stereo partly drawn) [Example 26ff] |  |  |  |  |  |  | 1.56 (≈ 3.72 µM) | 12.5 (≈ 29.8 µM) | 6.2 (≈ 14.8 µM) | 1.56 (≈ 3.72 µM) |
| CCCC(N)C(=O)NC1CCN(c2cc3c(cc2F)c(=O)c(C(=O)O)cn3-c2ccc(F)cc2)C1 (stereo not drawn) [Example 26h] |  |  |  |  |  |  | 0.78 (≈ 1.61 µM) | 6.2 (≈ 12.8 µM) | 1.56 (≈ 3.22 µM) | 0.78 (≈ 1.61 µM) |
| CCCC(N)C(=O)NC1CCN(c2nc3c(cc2F)c(=O)c(C(=O)O)cn3-c2ccc(F)cc2)C1 (stereo not drawn) [Example 26i] | 240 (≈ 494 µM) | > 9000 | 1.56 (≈ 3.21 µM) | 6.2 (≈ 12.8 µM) | 1.56 (≈ 3.21 µM) | 0.39 (≈ 0.803 µM) |  |  |  |  |
| Cl.NCC(=O)N[C@@H](Cc1ccccc1)C(=O)NC1CCN(c2cc3c(cc2F)c(=O)c(C(=O)O)cn3-c2ccc(F)cc2F)C1 (stereo partly drawn) [Example 26jj, 1-(2,4-Difluorophenyl)-6-Fluoro-7-(3-Gly-L-Phe -Amino-1-Pyrrolidinyl)-1,4-Dihydro-4-Oxo-Quinoline-3-Carboxylic Acid Hydrochloride] |  |  |  |  |  |  | 16 | 64 | 32 | 16 |
| CC(C)CC(N)C(=O)NC1CCN(c2nc3c(cc2F)c(=O)c(C(=O)O)cn3C2CC2)C1 (stereo not drawn) [Example 26o] |  |  |  |  |  |  | 0.39 (≈ 0.875 µM) | 1.56 (≈ 3.5 µM) | 3.1 (≈ 6.96 µM) | 0.2 (≈ 0.449 µM) |
| CCCC(N)C(=O)NC1CCN(c2nc3c(cc2F)c(=O)c(C(=O)O)cn3C2CC2)C1 (stereo not drawn) [Example 26p] |  |  |  |  |  |  | 0.39 (≈ 0.904 µM) | 1.56 (≈ 3.62 µM) | 3.1 (≈ 7.18 µM) |  |
| O=C(O)c1cn(-c2ccc(F)cc2F)c2nc(N3CCC(NC(=O)C4CCCN4)C3)c(F)cc2c1=O (stereo not drawn) [Example 28] |  |  | 1.56 (≈ 3.11 µM) | 12.5 (≈ 24.9 µM) | 1.56 (≈ 3.11 µM) | 1.56 (≈ 3.11 µM) |  |  |  |  |
| CCC[C@H](NC(=O)CNC(=O)CN)C(=O)NC1CCN(c2nc3c(cc2F)c(=O)c(C(=O)O)cn3-c2ccc(F)cc2F)C1 (stereo partly drawn) [Example 30] |  |  | 25 (≈ 40.5 µM) | > 100 | 100 (≈ 162 µM) | 25 (≈ 40.5 µM) |  |  |  |  |
| NC(=O)C[C@H](N)C(=O)NC1CCN(c2nc3c(cc2F)c(=O)c(C(=O)O)cn3-c2ccc(F)cc2F)C1 (stereo partly drawn) [Example 41, 7-(3-L-Asparagine-amino-1-pyrrolidinyl)-1-(2,4-difluorophenyl)-6-fluoro-1,4-dihydro-4-oxo-1,8-naphthyridine-3-carboxylic acid hydrochloride] | 400 | > 35000 |  |  |  |  |  |  |  |  |
| N[C@@H](CC(=O)O)C(=O)NC1CCN(c2nc3c(cc2F)c(=O)c(C(=O)O)cn3-c2ccc(F)cc2F)C1 (stereo partly drawn) [Example 45, 7-(3-L-Asp-amino-1-pyrrolidinyl)-1-(2,4-difluorophenyl)-6-fluoro-1,4-dihydro-4-oxo-1,8-naphthyridine-3-carboxylic acid hydrochloride] | 2400 | 4100 |  |  |  |  |  |  |  |  |
| Cl.Cl.NCCCC[C@H](N)C(=O)NC1CCN(c2nc3c(cc2F)c(=O)c(C(=O)O)cn3-c2ccc(F)cc2F)C1 (stereo partly drawn) [Example 46, 7-(3-Lys-amino-1-pyrrolidinyl)-1-(2,4-difluorophenyl)-6-fluoro-1,4-dihydro-4-oxo-1,8-naphthyridine-3-carboxylic acid dihydrochloride] |  |  |  |  |  |  | 100 | >100 | 100 | 3.12 |
| CCC[C@H](NC(=O)CN)C(=O)NC1CCN(c2nc3c(cc2F)c(=O)c(C(=O)O)cn3-c2ccc(F)cc2F)C1 (stereo partly drawn) [Example 52] | 80 (≈ 143 µM) | 6890 (≈ 12300 µM) |  |  |  |  |  |  |  |  |

The next lines start with the values.

| solubility (physchem; pH 7.4) [µg/mL] | solubility (physchem; water) [µg/mL] | MIC (Stap. Aureus CMX 553; [1]) [µg/mL] | MIC (Ps.Aeruginosa A5007; [2]) [µg/mL] | MIC (Strep. pyogenes EES 61; [3]) [µg/mL] | MIC (E.Coli Juhl; [4]) [µg/mL] | MIC (Stap. Aureus CMX 553) [µg/mL] | MIC (Ps.Aeruginosa A5007) [µg/mL] | MIC (Strep. pyogenes EES 61; [5]) [µg/mL] | MIC (E.Coli Juhl) [µg/mL] | SMILES |
| --- | --- | --- | --- | --- | --- | --- | --- | --- | --- | --- |
| 30 | > 35000 | 25 | > 100 | 25 | 12.5 |  |  |  |  | CS(=O)(=O)CC[C@H](N)C(=O)NC1CCN(c2nc3c(cc2F)c(=O)c(C(=O)O)cn3-c2ccc(F)cc2F)C1 (stereo partly drawn) [Example 31c, 7-[3-L-Methioninesulfone-Amino-1-Pyrrolidinyl]-1-(2,4-Difluorophenyl)-6-Fluoro-1,4-Dihydro-4-Oxo 1,8-Naphthyridine-3-Carboxylic Acid Hydrochloride] |
| 300 | > 100000 | 16 | > 64 | 32 | 64 |  |  |  |  | N[C@@H](Cc1cnc[nH]1)C(=O)NC1CCN(c2nc3c(cc2F)c(=O)c(C(=O)O)cn3-c2ccc(F)cc2F)C1 (stereo partly drawn) [Example 44c, 7-[3-L-Histidine-Amino-1-Pyrrolidinyl)-1-(2,4-Difluorophenyl)-6-Fluoro-1,4-Dihydro-4-oxo-1,8-Naphthyridine-3-Carboxylic Acid Dihydrochloride] |
| 1030 (≈ 1790 µM) | 26000 (≈ 45300 µM) |  |  |  |  |  |  |  |  | CCC[C@H](NC(=O)[C@H](C)N)C(=O)NC1CCN(c2nc3c(cc2F)c(=O)c(C(=O)O)cn3-c2ccc(F)cc2F)C1 (stereo partly drawn) [Example 55b, 7-(3-Ala-Nval-amino-1-pyrrolidinyl)-6-fluoro-1-(2,4-difluorophenyl)-1,4-dihydro-4-oxo-1,8-naphthyridine-3-carboxylic acid] |
| 2500 (≈ 4120 µM) | 20000 (≈ 33000 µM) |  |  |  |  |  |  |  |  | CSCC[C@H](NC(=O)[C@H](C)N)C(=O)NC1CCN(c2nc3c(cc2F)c(=O)c(C(=O)O)cn3-c2ccc(F)cc2F)C1 (stereo partly drawn) [Example 55n, 7-(3-Ala-Met-amino-1-pyrrolidinyl)-6-fluoro-1-(2,4-difluorophenyl)-1,4-dihydro-4-oxo-1,8-naphthyridine-3-carboxylic acid] |
| 310 (≈ 465 µM) | 22000 (≈ 33000 µM) |  |  |  |  |  |  |  |  | CSCC[C@H](NC(=O)[C@@H](N)CCSC)C(=O)NC1CCN(c2nc3c(cc2F)c(=O)c(C(=O)O)cn3-c2ccc(F)cc2F)C1 (stereo partly drawn) [Example 55o, 7-(3-Met-Met-amino-1-pyrrolidinyl)-6-fluoro-1-(2,4-difluorophenyl)-1,4-dihydro-4-oxo-1,8-naphthyridine-3-carboxylic acid] |
| 60 (≈ 92.5 µM) | 23000 (≈ 35500 µM) |  |  |  |  |  |  |  |  | CSCC[C@H](NC(=O)[C@@H](N)CC(C)C)C(=O)NC1CCN(c2nc3c(cc2F)c(=O)c(C(=O)O)cn3-c2ccc(F)cc2F)C1 (stereo partly drawn) [Example 55p, 7-(3-Leu-Met-amino-1-pyrrolidinyl)-6-fluoro-1-(2,4-difluorophenyl)-1,4-dihydro-4-oxo-1,8-naphthyridine-3-carboxylic acid] |
| 190 (≈ 301 µM) | 19000 (≈ 30100 µM) |  |  |  |  |  |  |  |  | CC(C)C[C@H](NC(=O)[C@@H](N)CC(C)C)C(=O)NC1CCN(c2nc3c(cc2F)c(=O)c(C(=O)O)cn3-c2ccc(F)cc2F)C1 (stereo partly drawn) [Example 55q, 7-(3-Leu-Leu-amino-1-pyrrolidinyl)-6-fluoro-1-(2,4-difluorophenyl)-1,4-dihydro-4-oxo-1,8-naphthyridine-3-carboxylic acid] |
| 2000 (≈ 3400 µM) | 26000 (≈ 44200 µM) |  |  |  |  |  |  |  |  | CC(C)C[C@H](NC(=O)[C@H](C)N)C(=O)NC1CCN(c2nc3c(cc2F)c(=O)c(C(=O)O)cn3-c2ccc(F)cc2F)C1 (stereo partly drawn) [Example 55r, 7-(3-Ala-Leu-amino-1-pyrrolidinyl)-6-fluoro-1-(2,4-difluorophenyl)-1,4-dihydro-4-oxo-1,8-naphthyridine-3-carboxylic acid] |
